The source made the active and inactive calls. The rule behind the calls is not given here.

For test [1], the target named is Transcription factor p65 (Homo sapiens) (UniProt Q04206). The test can be described thus: Inhibition of NF-kappaB-65 (unknown origin) expressed in human keratinocytes assessed as inhibition of bFGF production at 4 uM by EIA. The class given is cell-based.
The test system of test [2] is Mus musculus. Kind of test: Antiphotoaging activity in DBA-2 mouse assessed as reduction of UVB-induced epidermal hyperproliferation in ear tissue administered as po as powder qd for 12 days relative to untreated control. The class given is functional, organism-based.
The target of test [3] is Transcription factor p65 (Homo sapiens) (UniProt Q04206). The test can be described thus: Inhibition of NF-kappaB-65 (unknown origin)-mediated transactivation in TNFalpha-stimulated HEK293 cells assessed inhibition of I-kappaB phosphorylation and degradation after 24 hrs. The class given is cell-based.
Test [4] concerns Mus musculus. Kind of test: Antiphotoaging activity in DBA-2 mouse assessed as reduction of UVB-induced melanocyte proliferation in ear tissue at 92.4 to 462.2 mg/kg, po as powder qd for 12 days relative to untreated control. The class given is functional. The conditions noted are these: dose mg/kg 92.4-462.2.
Another test concerns HEK293. Kind of test: Inhibition of NF-kappaB (unknown origin) expressed in TNFalpha-stimulated HEK293 cells expressing pGL3-Luc assessed inhibition of transactivation activity after 24 hrs by luciferase assay. The class given is cell-based. The conditions noted are these: Homo sapiens.
Test [5] relates to Mus musculus. The test can be described thus: Antiphotoaging activity in DBA-2 mouse assessed as reduction of UVB-induced PCNA-positive cell in ear tissue at 92.4 to 462.2 mg/kg, po as powder qd for 12 days. It counts as functional, organism-based.
For test [6], the system named is Mus musculus. Kind of test: Antiphotoaging activity in DBA-2 mouse assessed as reduction of UVB-induced epidermal hyperproliferation in ear tissue at 92.4 mg/kg, po as powder qd for 12 days relative to untreated control. It counts as functional, organism-based. Also noted: dose 92.4 mg/kg.
The subject of test [7] is Mus musculus. Kind of test: Antiphotoaging activity in DBA-2 mouse assessed as reduction of UVB-induced epidermal hyperproliferation in ear tissue at 462.2 mg/kg, po as powder qd for 12 days relative to untreated control. The class given is functional.
For test [8], the target named is Transcription factor p65 (Homo sapiens) (UniProt Q04206). Kind of test: Inhibition of NF-kappaB-65 (unknown origin) expressed in TNFalpha-stimulated HEK293 cells assessed inhibition of nuclear translocation at 8 uM after 3 hrs. It counts as cell-based.
For test [9] the target is unchanged. The test can be described thus: Inhibition of NF-kappaB-65 (unknown origin) expressed in human dermal fibroblasts assessed as inhibition of MMP1 production at 4 uM by EIA.
For test [10] the target is unchanged. Kind of test: Inhibition of NF-kappaB p65 expressed in human keratinocytes co-cultured with human epidermal melanocytes assessed as inhibition of melanocyte proliferation at 4 uM by WST-1 assay. It counts as cell-based. In general terms: Tetrazolium assays rely on reduction of a dye to a coloured formazan, in cell work by metabolically active cells.

Transcription factor p65 (Homo sapiens), sequence (Q04206 whole entry): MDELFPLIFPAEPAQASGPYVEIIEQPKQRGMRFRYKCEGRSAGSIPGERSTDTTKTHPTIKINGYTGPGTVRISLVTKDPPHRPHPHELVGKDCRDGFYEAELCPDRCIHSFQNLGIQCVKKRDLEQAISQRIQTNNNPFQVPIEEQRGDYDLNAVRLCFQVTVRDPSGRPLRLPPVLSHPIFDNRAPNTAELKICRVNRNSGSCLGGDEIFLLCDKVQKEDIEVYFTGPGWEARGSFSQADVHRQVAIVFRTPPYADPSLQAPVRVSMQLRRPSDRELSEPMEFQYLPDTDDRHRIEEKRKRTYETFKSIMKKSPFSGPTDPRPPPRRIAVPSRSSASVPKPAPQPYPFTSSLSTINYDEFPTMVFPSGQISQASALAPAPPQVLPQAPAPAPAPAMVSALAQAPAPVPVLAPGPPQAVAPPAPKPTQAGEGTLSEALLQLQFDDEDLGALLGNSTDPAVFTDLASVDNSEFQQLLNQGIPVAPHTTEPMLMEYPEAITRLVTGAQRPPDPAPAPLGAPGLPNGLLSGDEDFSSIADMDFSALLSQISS

`C=C(CO)C(=O)O[C@H]1CC(=C)[C@@H]2C[C@H](O)C(=C)[C@@H]2[C@H]2OC(=O)C(=C)[C@@H]21` [CYNAROPICRIN]: the inhibition result in test [1], in test [8], in [9] and in test [10] was “Active” each time. Also, the Activity entry in the test with Mus musculus [2] was “Dose-dependent effect”. The inhibition entry (in test [3]; in the test with HEK293) was “Dose-dependent effect” each time. For the same compound, the “fold change (FC)” value in the test with Mus musculus [4] is 4.3; in the test with Mus musculus [7], 1.7. For the same compound, in the test on Mus musculus [5], the result was inactive. The outcome in the test with Mus musculus [6] was Active.

(Values after ChEMBL document CHEMBL2311447, “Cynaropicrin from Cynara scolymus L. suppresses photoaging of skin by inhibiting the transcription activity of nuclear factor-kappa B” (2013).)
